Data taken from US10563267B2, “Polymorphism biomarkers predict clinical outcomes of cancer patients receiving regorafenib” (University of Southern California, priority 2016, dated 2020).

How the values were obtained:
cancer patients [1] = assay: Clinical outcome (OS, PFS, tumor response) of cancer patients treated with regorafenib, by SNP genotype; assay type: in vivo, human
Protocol: Further, single nucleotide polymorphisms (SNPs) of genes involved in various angiogenic pathways were evaluated for their ability to predict clinical outcomes for cancer patient treated with a therapy comprising regorafenib or an equivalent thereof.
Still further, combinations of single nucleotide polymorphisms (SNPs) of genes involved in various angiogenic pathways were evaluated for their ability to predict clinical outcomes for cancer patient treated with a therapy comprising regorafenib or an equivalent thereof.
Genomic DNA was obtained from cancer patients in therapies comprising regorafenib or an equivalent thereof and analyzed by using PCR-based direct sequencing. Multiple functional SNPs in 11 genes (NOTCH1, IL8, CCL5, DLL4, PLGF, ANG2, TIE1, PDGFRB, VEGFR2, EGFC and VEGFA) were tested.
PCR and product sequencing were done using standard procedures. Uni- and multivariate analyses, adjusting for age, gender, rash and racial background, were carried out.

cancer patients [2] = assay: Hand foot skin reaction (HFSR) in cancer patients receiving regorafenib, by ethnicity; assay type: in vivo, human
Protocol: HFSR of grade 3-4 are among the most common grade 3-4 […] reactions associated with a therapy with regorafenib or an equivalent thereof. In this example, single nucleotide polymorphisms (SNPs) of CCL5 were evaluated for their ability to predict the likelihood for a patient to experience HFSR from a therapy comprising an effective amount of regorafenib or an equivalent thereof.
Genomic DNA was obtained from more than 200 cancer patients receiving regorafenib and analyzed by using PCR-based direct sequencing. SNPs in CCL5 were tested to discover that the rarity (<1%) of the genotype of (G/G) for the rs2280789 polymorphism and/or the rs3817655 polymorphism (the genotype of (G/G) for the rs2280789 polymorphism and/or the rs3817655 are seen in 10% in Asian (Japanese) and 1% in Caucasian (Italian)) relates to the significant ethnic difference in severe HFSR developed by Caucasian patients compared to Japanese patients (grade 3 HFSR 16% vs 33.8% respectively, p=0.003).

[3] = VEGFR2 rs2071559 A/Variant + NOTCH1 rs3125001 C/C + ANG2 rs2916702 A/Variant carriers
[4] = VEGFR2 rs2071559 A/Variant + NOTCH1 rs3125001 C/C + ANG2 rs2916702 G/G carriers
[5] = VEGFR2 rs2071559 A/Variant + NOTCH1 rs3125001 T/Variant carriers
[6] = VEGFR2 rs2071559 A/variant carriers (N=111)

- grade 3 HFSR (cancer patients [2]; Caucasian (Italian) patients receiving regorafenib): 16%
- grade 3 HFSR (cancer patients [2]; Japanese patients receiving regorafenib): 33.8%
SMILES: CNC(=O)c1cc(Oc2ccc(NC(=O)Nc3ccc(Cl)c(C(F)(F)F)c3)c(F)c2)ccn1 [regorafenib]
- HR for OS (cancer patients [1]; TIE1 A/A + Plgf C/C vs TIE1 G/Variant carriers (HR reference), multivariate): 0.22
- HR for OS (cancer patients [1]; TIE1 A/A + Plgf T/Variant vs TIE1 G/Variant carriers (HR reference), multivariate): 0.79
- median OS (cancer patients [1]; TIE1 rs7527092 A/A (N=41)): 4.7 months
- median OS (cancer patients [1]; TIE1 rs7527092 A/A + Plgf rs2268614 C/C carriers (N=9)): 2.6 months
- median OS (cancer patients [1]; TIE1 rs7527092 A/A + Plgf rs2268614 T/Variant carriers (N=32)): 5.8 months
- HR for OS (cancer patients [1]; TIE1 rs7527092 A/A vs G/variant carriers, multivariate, p=0.0063): 1.72
- HR for OS (cancer patients [1]; TIE1 rs7527092 A/A vs G/variant carriers, univariate, p=0.0303): 1.49
- median OS (cancer patients [1]; TIE1 rs7527092 G/Variant carriers (N=109)): 7.8 months
- median OS (cancer patients [1]; TIE1 rs7527092 G/variant carriers (N=106)): 7.8 months
- patients non-responsive (tumor response) (cancer patients [1]; [3]): 7
- patients responsive (tumor response) (cancer patients [1]; [3]): 16
- patients non-responsive (tumor response) (cancer patients [1]; [4]): 6
- patients responsive (tumor response) (cancer patients [1]; [4]): 2
- patients non-responsive (tumor response) (cancer patients [1]; [5]): 49
- patients responsive (tumor response) (cancer patients [1]; [5]): 25
- median OS (cancer patients [1]; [6]): 7.0 months
- median PFS (cancer patients [1]; [6]): 2.3 months
- response (positive) (cancer patients [1]; [6]): 41%
- median OS (cancer patients [1]; VEGFR2 rs2071559 G/G (N=39)): 4.7 months
- median PFS (cancer patients [1]; VEGFR2 rs2071559 G/G (N=39)): 1.8 months
- response (positive) (cancer patients [1]; VEGFR2 rs2071559 G/G (N=39)): 18%
- patients non-responsive (tumor response) (cancer patients [1]; VEGFR2 rs2071559 G/G carriers): 31
- patients responsive (tumor response) (cancer patients [1]; VEGFR2 rs2071559 G/G carriers): 7
- HR for PFS (cancer patients [1]; VEGFR2 rs2071559 G/G vs A/variant carriers, multivariate, p=0.0197): 1.59
- HR for PFS (cancer patients [1]; VEGFR2 rs2071559 G/G vs A/variant carriers, univariate, p=0.0250): 1.49
- HR for OS (cancer patients [1]; VEGFR2 rs2071559 G/G vs A/variant carriers, univariate, p=0.0452): 1.45
- median PFS (cancer patients [1]; high-risk group: VEGFR2 rs2071559 G/G + NOTCH1 rs6563 A/A (N=15) together with G/G + NOTCH1 G/Variant + ANG2 rs2442599 A/A (N=11)): 1.7 months
- median PFS (cancer patients [1]; low-risk group: VEGFR2 rs2071559 A/variant (N=111) together with G/G + NOTCH1 rs6563 G/Variant + ANG2 rs2442599 G/Variant (N=13)): 2.3 months
- HR for PFS (cancer patients [1]; tree model high-risk vs low-risk group (VEGFR2/NOTCH1/ANG2), multivariate, log-rank P<0.001): 0.41
